Data set [1] relates to 8505C cells. The experiment in a line: Mouse orthotopic xenograft model of ATC, survival. To be noted: for Median Survival: Nu/Nu mice, thyroid orthotopic 8505C, control 22 days; for Hazard ratio: relative Control (untreated) mice, orthotopic 8505C.
The conditions of data set [2]: for Histological evidence of toxicity: GI, affected/total (fraction) / Histological evidence of toxicity: Heart, affected/total (fraction) / Histological evidence of toxicity: Liver, Glycogen, affected/total (fraction) / Histological evidence of toxicity: Liver, Vaculation, affected/total (fraction) / Histological evidence of toxicity: Pancreas, affected/total (fraction): C57BL6/J; for Histological evidence of toxicity: GI, affected/total (fraction) / Histological evidence of toxicity: Heart, affected/total (fraction) / Histological evidence of toxicity: Liver, Glycogen, affected/total (fraction) / Histological evidence of toxicity: Liver, Vaculation, affected/total (fraction) / Histological evidence of toxicity: Pancreas, affected/total (fraction) / Lethality or lethargy: 7 days; for Lethality or lethargy: super-therapeutic doses.

A further data set relates to THJ-21T. Description: 72-hr survival dose-response of ATC cell line THJ-21T. Format: cell-based. The conditions noted are these: Homo sapiens.
The subject of data set [3] is 8505C cells. The experiment in a line: CellTiter-Glo dose-response in 8505C cells after siRNA knockdown. Format: cell-based, human. The conditions noted are these: for IC50: Homo sapiens, 72 h.
The next data set relates to THJ-16T. The experiment in a line: 72-hr survival dose-response of ATC cell line THJ-16T.
For a further data set, the system named is NFκB-p65 (RelA). The experiment in a line: Western blot of NFκB-p65/RelA expression. It is filed as cell-based, human. The conditions noted are these: 8505C and THJ-16T cells, S 10 µM, Q 20 µM.
The next data set concerns THJ-29T. Description: 72-hr survival dose-response of ATC cell line THJ-29T. It is filed as cell-based. To be noted: Homo sapiens.
A further data set concerns 8505C. Description: Flow cytometric sub-G1 programmed cell death. Format: cell-based, human. To be noted: short-term treatment, S10, Q20, S10Q20.

From publication PMC7524204 (Clinical cancer research : an official journal of the …, 2016) come the findings set out here.

The structures appear in SMILES notation.

Turning to `COc1cccc2c1C(=O)c1c(O)c3c(c(O)c1C2=O)C[C@@](O)(C(=O)CO)C[C@@H]3O[C@H]1C[C@H](N)[C@H](O)[C@H](C)O1` [Doxorubicin], in the data set on 8505C cells [1], the “Median Survival” value is reported as 31 days and the Hazard ratio came out at 0.709. For the same compound, in data set [2] (mouse, in vivo), the “Histological evidence of toxicity: GI, affected/total (fraction)” value is recorded as 4/5 (0.80); the “Histological evidence of toxicity: Heart, affected/total (fraction)” value is reported as 0/5 (0); the “Histological evidence of toxicity: Liver, Glycogen, affected/total (fraction)” value is listed as 3/5 (0.60); the “Histological evidence of toxicity: Liver, Vaculation, affected/total (fraction)” value was 4/5 (0.80). Further, in data set [2] (mouse, in vivo), the “Histological evidence of toxicity: Pancreas, affected/total (fraction)” value was 4/5 (0.80); the “Level of platelets in blood” value was “increased level”; the “Number of RBC's and hemoglobin (Hgb)” value is recorded as “reduction”. For the same compound, the Lethality or lethargy entry in data set [2] was “No lethality or lethargy”.

For the compound `CCN(CC)CCCC(C)Nc1c2ccc(Cl)cc2nc2ccc(OC)cc12` (centres unmarked) [Quinacrine], in the data set with THJ-21T, the IC50 amounted to 15.4 µM. In the data set on 8505C cells [3], the “Impact of p65/RelA siRNA on survival dose-response relationship” value is “did not have any significant impact”. Also, in the data set on 8505C cells [3] (Mcl-1 siRNA), the “Effect of Mcl-1 knockdown on IC50” value was “did not affect”. Besides, in the data set on 8505C cells [1], the “Median Survival” value was found to be 32 days. In addition, the IC50 with THJ-16T (Homo sapiens, 72 h) was 18.4 µM. Further, the “Expression of NFκB-p65 (RelA)” value in the data set on NFκB-p65 (RelA) is “inhibited”. In addition, in data set [2] (mouse, in vivo), the “Histological evidence of toxicity: GI, affected/total (fraction)” value is on record as 0/4 (0); the “Histological evidence of toxicity: Heart, affected/total (fraction)” value is listed as 1/5 (0.20); the “Histological evidence of toxicity: Liver, Glycogen, affected/total (fraction)” value is 3/4 (0.75); the “Histological evidence of toxicity: Liver, Vaculation, affected/total (fraction)” value is given as 3/4 (0.75). Moreover, the “Histological evidence of toxicity: Pancreas, affected/total (fraction)” value in data set [2] (mouse, in vivo) is listed as 0/4 (0). The compound further came in with an IC50 in the data set with THJ-29T of 12.7 µM. Besides, the “sub-G1 DNA” value with 8505C was “Increased”.

In turn, `CNC(=O)c1cc(Oc2ccc(NC(=O)Nc3ccc(Cl)c(C(F)(F)F)c3)cc2)ccn1` [Sorafenib] gave an IC50 in the data set with THJ-21T of 12.4 µM. Besides, the “Increased sensitization by p65/RelA siRNA compared to Scr siRNA” value in the data set on 8505C cells [3] is on record as “approximately 2 fold”. Also, the IC50 in the data set with 8505C cells [3] (scrambled (Scr) siRNA) was 10.5 µM. In the data set with 8505C cells [3] (siRNA targeting p65/RelA), this compound displayed an IC50 of 5.15 µM. In the data set on 8505C cells [1], the “Median Survival” value was 26 days and the Hazard ratio is 0.846. In the data set with THJ-16T (THJ-16T, 72-hr survival), this compound showed an IC50 of 31 µM. Moreover, in data set [2] (mouse, in vivo), the “Histological evidence of toxicity: GI, affected/total (fraction)” value was 0/5 (0); the “Histological evidence of toxicity: Heart, affected/total (fraction)” value is reported as 0/5 (0); the “Histological evidence of toxicity: Liver, Glycogen, affected/total (fraction)” value was 4/5 (0.80); the “Histological evidence of toxicity: Liver, Vaculation, affected/total (fraction)” value is 4/5 (0.80). In addition, the “Histological evidence of toxicity: Pancreas, affected/total (fraction)” value in data set [2] (mouse, in vivo) is reported as 5/5 (1.00). Also, in data set [2], the Lethality or lethargy entry is listed as “No lethality or lethargy”. Further, the IC50 in the data set with THJ-29T is 4.5 µM. Moreover, the “sub-G1 DNA” value in the data set with 8505C is listed as “Increased”.
